Values of other authors in paper PMC3983201, “6-Methoxyflavanones as Bitter Taste Receptor Blockers for hTAS2R39” (PLoS ONE, 2014).
Read-outs that look alike come from different tables or passages of the source.

Experiments:
[1] = tested on: hTAS2R31; parameters: method as in PMID 22059530; conditions: cited from earlier work
[2] = biological target: T1, hTAS2R39 (Homo sapiens, UniProt P59534); parameters: method as in PMID 24117141; conditions: cited from earlier work
T1 construct: first 45 amino acids of rat somatostatin receptor type 3 (sst3 membrane-targeting tag) (N); expressed in transfected cells; host or cells: HEK293 T-Rex Flp-In cells stably expressing Gα16-gust44; receptor in pcDNA5/FRT, induced with doxycycline
T1 sequence (P59534 1-338): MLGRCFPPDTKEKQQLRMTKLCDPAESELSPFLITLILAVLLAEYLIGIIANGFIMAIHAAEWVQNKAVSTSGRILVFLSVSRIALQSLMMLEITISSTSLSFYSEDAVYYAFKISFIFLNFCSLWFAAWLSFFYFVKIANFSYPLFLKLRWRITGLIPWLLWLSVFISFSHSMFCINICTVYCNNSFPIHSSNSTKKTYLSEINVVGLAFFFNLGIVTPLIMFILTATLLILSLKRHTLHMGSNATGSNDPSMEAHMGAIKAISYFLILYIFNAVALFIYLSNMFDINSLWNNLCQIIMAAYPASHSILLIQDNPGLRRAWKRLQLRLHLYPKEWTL

[3] = tested on: bitter taste; parameters: method as in PMID 16028996; conditions: in-vivo sensory masking, unknown mechanism; cited from earlier work

Structure (SMILES)	antagonism of hTAS2R31 [1]	activation of hTAS2R39 in a previous study [2]	reduction of the bitter taste of different chemical classes of bitter molecules [3]	antagonism of hTAS2R31 ([1]; listed as sakuranetin)
COc1cc2c(c(O)c1OC)C(=O)C[C@@H](c1ccc(O)cc1)O2 [6-methoxysakuranetin, reference compound]	antagonists for hTAS2R31	–	–	–
COc1cc([C@@H]2CC(=O)c3c(O)cc(O)cc3O2)ccc1O [Compound 7, Homoeriodictyol]	–	a activated hTAS2R39 in a previous study [16], but was selected for testing as antagonist due to ability to reduce bitter taste perception in sensory tests [9].	up to 40%	–
COc1cc(O)c2c(c1)O[C@H](c1ccc(O)cc1)CC2=O [Compound 14, Sakuranetin]	c reported as antagonist of hTAS2R31 [10].	–	–	antagonists for hTAS2R31
